One block for each compound: values may come before it.
Columns and labels:
[1] = test system: HDAC; conditions: cited from earlier work; for concentration at which HDAC is inhibited: literature statements, in vitro or in vivo for SAHA, SBHA, CBHA
[2] = test system: Zucker diabetic fatty rats; assay: Zucker diabetic rat model, 42 days oral dosing; format: in vivo; conditions: for daily body weights / food intake: 200 mg/kg orally twice a day, 43 days, vs vehicle and other groups; for fasting serum glucose levels: day 8, 15, 22, 29, 36 and 43, 200 mg/kg orally twice a day
Protocol: Groups of 8 rats were used for each group (6 weeks old, 190±10 grams). […] Blood samples were collected from the retro-orbital sinus 35 minutes before glucose load (Fasting glucose) and 90 minutes post oral glucose load. Serum glucose levels were determined by means of a Hitachi Model 750 Automatic Analyzer.

[3] = test system: male C57BL/6J mice; assay: Diet induced obesity (DIO) mouse model: body weight, food intake, body fat content (dexa scanning); format: in vivo; conditions: resveratrol 400 mg/kg/day co-administered with a high fat diet
Protocol: The mice undergo an extensive phenotypic and molecular analysis to define the regulatory pathways affected by Sirt-1 activation.
(§1) In this long-term study, 50 male C57BL6J mice (5 weeks of age) are analyzed during a period of 18 weeks.
During the entire study, body weight and food intake
are monitored twice weekly.
During week 1, body composition is analyzed, for all groups, by dual energy X-ray absorptiometry (dexascan).
During week 12, body weight composition is again analysed by dexascan for all groups.
Diet. The standard rodent chow diet is obtained from UAR and the high fat diet is obtained from Research Diet. Mice are fed, either with chow diet (16% protein, 3% fat, 5% fiber, 5% ash) or with high fat diet (26.2% protein, 26.3% carbohydrate, 34.9% fat). Resveratrol is mixed with either powdered chow diet or powdered high fat diet and pellets are reconstituted. Control groups receive pellets as provided by the company. Due to the consistency of the high fat diet, it is not necessary to add water to mix it with the resveratrol. […]
Determination of body fat content by Dexa scanning. […] Bone mineral density (BMD in g/cm^2) and body composition are determined by using the PIXIMUS software (version 1.4x, GE Medical Systems).
The bottom panels show comparisons of body fat content, as analyzed by dexa scanning, at […] of treatment for mice in the four dietary groups. […]

[4] = test system: mice; assay: Succinate dehydrogenase staining of brown adipose tissue and muscle of DIO mice; format: in vivo; conditions: 16 weeks, HF+R400 vs HF diet
Protocol: Succinate dehydrogenase is a marker of mitochondrial activity and produces a dark stain in the photos. Tissues were collected and immediately frozen in methylbutane, then kept at −80° C. prior to sectioning and staining. Succinate Dehydrogenase staining was carried out using standard procedures and commercially available reagents (see e.g., Reichmann H and Wildenauer D, Histochemistry, 96: 251-3 (1991)).

[5] = test system: high fat diet fed C57BL/6J mice; assay: Intraperitoneal and oral glucose tolerance tests in DIO mice; format: in vivo; conditions: 400 mg/kg/day, IPGTT and OGTT 2 g glucose/kg
Protocol: During week 10, glucose tolerance is determined by subjecting all the animals to an intraperitoneal glucose tolerance test (IPGTT). Animals are fasted for 12 h prior to this test. During week 16, glucose tolerance is analysed by performing an oral glucose tolerance test (OGTT) on a subset of animals (n=5) of groups 3, 4 and 5, and an intraperitoneal insulin sensitivity test (IPIST) on another subset of animals (n=5). During these experiments, blood is also collected to analyze insulin levels. Animals are fasted 12 h prior these tests. Intraperitoneal glucose tolerance test—Oral glucose tolerance test. IPGTT and OGTT are performed in mice which are fasted overnight (12 h). Mice are either injected intraperitoneally (IPGTT) or orally gavaged (OGTT) with a solution of 20% glucose in sterile saline (0.9% NaCl) at a dose of 2 g glucose/kg body weight. Blood is collected from the tail vein, for glucose and insulin monitoring, prior to and at 15, 30, 45, 75, 90, 120, 150, 180 min after administration of the glucose solution. The incremental area of the glucose curve is calculated as a measure of insulin sensitivity, whereas the corresponding insulin levels indicate insulin secretory reserves.

[6] = test system: male C57BL/6J mice; assay: Circadian (spontaneous locomotor) activity in DIO mice; format: in vivo; conditions: 400 mg/kg/day, high fat diet
Protocol: During week 13, circadian activity of groups 3, 4 and 5 (high fat diet fed mice) is studied during a period of […]. A circadian activity measurement is performed on groups […]. Spontaneous locomotor activity is measured using individual boxes, each composed with a sliding floor, a detachable cage, and equipped with infra-red captors allowing measurement of ambulatory locomotor activity and rears. Boxes are linked to a computer using an electronic interface (Imetronic, Pessac, France). Mice are tested for 32 h in order to measure habituation to the apparatus as well as nocturnal and diurnal activities. The quantity of water consumed is measured during the test period using an automated lickometer.

[7] = test system: mice; assay: Serum biochemical analysis in DIO mice; format: in vivo; conditions: 16 weeks, high fat plus 400 mg/kg/day
Protocol: Diet induced obesity was established in mice as described above in Example 1.
The values shown are based on an average of measurements from 10 animals for each dietary group. Levels of total cholesterol, HDL-cholestrol, LDL-cholesterol, triglycerides, free fatty acids, aspartate aminotransferase […], alanine aminotransferase (ALAT), and alkaline […] (ALP) were determined using standard procedures. ASAT, ALP and ALAT were measured by kinetic UV and colour tests using methods based on the recommendations of the ‘International Federation for Clinical Chemistry’ (IFCC) on an Olympus AU-400 automated laboratory work station. AST was quantified using the OSR6109 reagent system which is based on the activity of AST that catalyzes the transamination of aspartate and 2-oxoglutarate to L-glutamate and oxalacetate. […] The decrease in absorbance due to the consumption of NADH is measured at […] and is proportional to the AST activity in the sample. ALT was quantified using the OSR6107 reagent system which is based on the activity of ALT that transfers the amino group from alanine to 2-oxoglutarate to form pyruvate and glutamate. […] As with the AST measurement, consumption of NADH is measured at […] and is proportional to the amount of ALT activity in the sample. ALP is measured by determining the rate of conversion of p-nitro-phenyl phosphate to p-nitrophenol (pNP). […]

[8] = test system: mice; assay: Transmission electron microscopy of gastrocnemius muscle and brown adipose tissue of DIO mice; format: in vivo; conditions: 16 weeks
Protocol: Transmission electron microscopy was carried out using standard techniques as described below. The mitochondria can be seen as the darker oblong Z lines crossing the I lines.
Transmission electron microscopy was carried out using standard techniques as described below. Fat droplets may be observed at either magnification as white or light gray droplets and mitochondria can be observed at the higher magnification as roundish striated structures.
Transmission Electronic Microscopy/Preparation of Samples: The biopsies of gastrocnemius muscle and brown adipose tissue were cut in pieces of 1 mm and fixed immediately after collection in Kamovsky fixative (glutaraldehyde in cacodylate buffer) and kept at 4° C. without time limitation. The second step is the post-fixation with 1% osmium tetraoxide in 0.1M cacodylate buffer for 1 h at 4° C. Tissues were then dehydrated through successive baths of graded alcohol followed by a propylene oxide bath, and then a treatment with a propylene oxide and resine mix before to be embedded in a pure epoxy resine (araldite, Epon 812) which becomes solid after 48 h at 60° C. Semithin sections were cut at 2 μm and stained with toluidine blue, and histologically analysed by light microscopy. Ultrathin sections were cut at 70 nm and contrasted with uranyl acetate and lead citrate, and examined with a Philips 208 electron microscope.

[9] = Tolerability of resveratrol as a food additive; format: in vivo
Protocol: as §1

[10] = test system: PGC1 alpha; assay: Immunoblot of PGC1 alpha acetylation in gastrocnemius muscle nuclear extracts; format: in vivo, mice; conditions: high fat diet plus 400 mg/kg resveratrol vs high fat diet, 15 weeks
Description: Following immunoprecipitation with a PGC 1 alpha antibody (Santa Cruz Biotechnology, cat #SC-13067), secondary western blots were probed with either a acetylated lysine specific monoclonal (Cell Signaling Technology, Cat #9441; top left panel) or a PGC1alpha antibody (Santa Cruz Biotechnology, cat #SC-13067; lower left panel). Exposures were scanned and the acetylation status of PGC1alpha compared to total PGC1alpha of animals on either the HF or HF+[…] is shown in the right hand panel.

[11] = test system: mice; assay: Hematoxylin and eosin staining of tissue sections of DIO mice; format: in vivo; conditions: 16 weeks, high fat plus 400 mg/kg/day vs control and high fat diets
Protocol: After collection, tissues were fixed in 4% paraformaldehyde, processed and embedded in paraffin prior to sectioning (10 microns) and staining. Tissue processing, paraffin embedding, tissue sectioning and hematoxylin and eosin staining of histological sections were carried out using standard procedures and commercially available materials (see e.g., McManus J. F. A. and Mowry, R. W., Staining Methods. Histologic and Histochemcial, Harper and Row, New York 1960; Luna L. G., Hitopathological Methods and Color Atlas of Special Stains and Tissue Artifacts, Johnson Printers, Downers Grove, Ill. 1992; Gabe M., Techniques histologiques. Masson, Paris 1968; and world wide web at statlab.com).

[12] = test system: male C57BL/6 mice; assay: Cold test (body temperature at 4° C.) in DIO mice; format: in vivo; conditions: 400 mg/kg/day coadministered with a high fat diet, p<0.05
Protocol: During week 18, a cold test is performed on all animals by measuring body temperature of animals exposed to 4° C.

[13] = test system: male C57BL/6J mice; assay: Energy expenditure by indirect calorimetry (oxygen consumption) in DIO mice; format: in vivo; conditions: 400 mg/kg/day co-administrated with a high fat diet
Protocol: Nocturnal energy expenditure of groups 1, 3 and 5 (chow diet, high fat diet and high fat diet 400 mg) is measured by indirect calorimetry. Energy expenditure. Energy expenditure is evaluated through indirect calorimetry by measuring oxygen consumption with the Oxymax apparatus (Columbus Instruments, Columbus, Ohio) during 12 h. This system consists of an open circuit with air coming in and out of plastic cages (one mouse per cage). Animals are allowed free access to food and water. A very precise CO2 and O2 sensor measures the difference in O2 and CO2 concentrations in both air volumes, which gives the amount of oxygen consumed in a period of time given that the air flow of air coming in the cage is constant. The data coming out of the apparatus are processed in a connected computer, analyzed, and shown in an exportable Excel file. The values are expressed as ml.kg^−1.h^−1, which is commonly known as the VO2.

[14] = high fat diet plus 400 mg/kg/day resveratrol

Compound: O=C(/C=C/c1cccc(C(=O)NO)c1)NO [CBHA, m-carboxy-cinnamic acid bishydroxamic acid]
concentration at which HDAC is inhibited [1]: micromolar concentration or lower

Compound: C/C=C1\NC(=O)[C@H]2CSSCC/C=C/[C@H](CC(=O)N[C@H](C(C)C)C(=O)N2)OC(=O)[C@H](C(C)C)NC1=O [Depsipeptide]
concentration at which HDAC is inhibited [1]: micromolar concentrations

Compound: CN(C)C(=N)N=C(N)N [metformin, reference compound]
daily body weights [2]: no statistical difference
food intake [2]: no statistical difference
fasting serum glucose levels [2]: no difference

succinate dehydrogenase staining (marker of mitochondrial activity), brown adipose tissue [4]: significantly higher
succinate dehydrogenase staining (marker of mitochondrial activity), gastrocnemius [4]: significantly higher
succinate dehydrogenase staining, soleus [4]: little change
serum biochemical markers (total, HDL and LDL cholesterol, triglycerides, free fatty acids, ASAT, ALAT, ALP) [7]: fell within the normal range
Compound: Oc1ccc(/C=C/c2cc(O)cc(O)c2)cc1 [resveratrol, 3,5,4′-Trihydroxy-trans-stilbene]
diet-induced obesity [3]: prevents diet-induced obesity
daily body weights [2]: no statistical difference
food intake [2]: no statistical difference
fasting serum glucose levels [2]: no difference
glucose tolerance [5]: increases glucose tolerance
circadian locomotor activity [6]: significantly diminishes the circadian locomotor activity
mitochondria in gastrocnemius muscle (non-oxidative fibers), transmission electron microscopy ([8]; HF+R400 vs control or high fat diets): more mitochondria
fat droplets in brown adipose tissue, transmission electron microscopy [8, 14]: smaller fat droplets
mitochondria in brown adipose tissue, transmission electron microscopy [8, 14]: more mitochondria
food aversion [9]: does not cause food aversion
tolerability [9]: well tolerated
PGC1 alpha deacetylation [10]: increases PGC1 alpha deacetylation
histological changes (liver, epididymal WAT, BAT, gastrocnemius muscle; hematoxylin and eosin) [11]: few histological changes
adaptive thermogenesis (body temperature during 6 h cold test) [12]: enhances adaptive thermogenesis
energy expenditure [13]: increases energy expenditure

Compound: depudecin
concentration at which HDAC is inhibited [1]: micromolar concentrations

Compound: trichostatin A [TSA]
inhibition of mammalian HDAC ([1]; Yoshida et al. (1990)): potent inhibitor

— patent US20070149466A1, “Methods and related compositions for treating or preventing obesity, insulin resistance disorders, and mitochondrial-associated disorders” (priority 2005, published 2007)
